Assay results from patent US9244081B2, “Cell-based fluorescent assays for identifying alpha and delta ENaC modulators” (Senomyx, Inc., priority 2006, dated 2016).

Assays:
[1] = tested on: perceived human salt intensity; experiment: Human salty taste intensity test; type: in vivo; conditions: 300-fold (amiloride) and 3000-fold (benzamil) above IC50 for alpha beta gamma ENaC in oocytes
Source text: Unlike other mammals, amiloride only slightly reduces the intensity of sodium chloride taste, i.e., by about 15-20% when used at concentrations that specifically modulate ENaC function. […] Thus, additional non-ENaC genes are likely involved in human taste and other biological functions.

[2] = tested on: perceived human salt intensity; conditions: concentrations that specifically modulate ENaC function; cited from earlier work
[3] = target: T1, alphaENaC channel (human alpha, beta and gamma subunits) (Homo sapiens, UniProt P37088+P51168+P51170); experiment: FLIPR membrane potential dye assay, dye loaded in absence of sodium (Protocol 1), alphaENaC-transfected HEK293 cells; type: cell-based
T1 construct: expressed in transfected cells; host or cells: HEK293, transient transfection
T1 sequence (P37088 1-669): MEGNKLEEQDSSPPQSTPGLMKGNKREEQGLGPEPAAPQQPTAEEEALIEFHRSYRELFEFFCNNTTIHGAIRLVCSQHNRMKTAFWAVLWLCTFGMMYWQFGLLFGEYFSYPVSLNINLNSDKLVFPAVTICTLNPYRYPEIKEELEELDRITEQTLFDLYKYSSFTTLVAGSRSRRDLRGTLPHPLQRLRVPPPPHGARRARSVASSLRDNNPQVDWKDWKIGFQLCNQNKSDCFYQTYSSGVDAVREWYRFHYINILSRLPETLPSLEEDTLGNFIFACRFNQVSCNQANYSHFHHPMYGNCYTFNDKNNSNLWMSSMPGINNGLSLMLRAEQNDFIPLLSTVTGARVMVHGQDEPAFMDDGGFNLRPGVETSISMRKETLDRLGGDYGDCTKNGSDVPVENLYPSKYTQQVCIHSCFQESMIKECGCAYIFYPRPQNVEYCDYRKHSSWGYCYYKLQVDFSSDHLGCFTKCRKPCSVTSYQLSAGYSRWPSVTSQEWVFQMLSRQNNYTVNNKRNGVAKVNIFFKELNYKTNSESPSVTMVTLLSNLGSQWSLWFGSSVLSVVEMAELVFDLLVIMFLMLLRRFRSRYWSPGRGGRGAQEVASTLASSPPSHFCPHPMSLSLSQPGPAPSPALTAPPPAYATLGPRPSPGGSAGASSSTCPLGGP
T1 sequence (P51168 1-640): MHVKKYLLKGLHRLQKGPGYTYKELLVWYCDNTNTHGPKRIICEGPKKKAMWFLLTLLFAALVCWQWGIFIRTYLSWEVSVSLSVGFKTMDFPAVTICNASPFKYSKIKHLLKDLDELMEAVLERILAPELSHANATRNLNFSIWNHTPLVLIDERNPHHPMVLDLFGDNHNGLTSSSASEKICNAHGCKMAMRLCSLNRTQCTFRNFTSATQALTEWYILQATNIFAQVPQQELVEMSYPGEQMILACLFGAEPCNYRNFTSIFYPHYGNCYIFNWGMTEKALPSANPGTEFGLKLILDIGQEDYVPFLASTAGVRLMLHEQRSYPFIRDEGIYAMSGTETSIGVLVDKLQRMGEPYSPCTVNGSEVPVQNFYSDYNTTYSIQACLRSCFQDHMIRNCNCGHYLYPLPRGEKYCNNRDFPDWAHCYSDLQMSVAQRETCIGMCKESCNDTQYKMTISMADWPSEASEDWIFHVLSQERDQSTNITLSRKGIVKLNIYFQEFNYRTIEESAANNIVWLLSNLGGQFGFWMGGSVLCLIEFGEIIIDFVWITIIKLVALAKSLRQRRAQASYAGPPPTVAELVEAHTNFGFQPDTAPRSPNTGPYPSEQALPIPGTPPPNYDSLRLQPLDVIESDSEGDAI
T1 sequence (P51170 1-649): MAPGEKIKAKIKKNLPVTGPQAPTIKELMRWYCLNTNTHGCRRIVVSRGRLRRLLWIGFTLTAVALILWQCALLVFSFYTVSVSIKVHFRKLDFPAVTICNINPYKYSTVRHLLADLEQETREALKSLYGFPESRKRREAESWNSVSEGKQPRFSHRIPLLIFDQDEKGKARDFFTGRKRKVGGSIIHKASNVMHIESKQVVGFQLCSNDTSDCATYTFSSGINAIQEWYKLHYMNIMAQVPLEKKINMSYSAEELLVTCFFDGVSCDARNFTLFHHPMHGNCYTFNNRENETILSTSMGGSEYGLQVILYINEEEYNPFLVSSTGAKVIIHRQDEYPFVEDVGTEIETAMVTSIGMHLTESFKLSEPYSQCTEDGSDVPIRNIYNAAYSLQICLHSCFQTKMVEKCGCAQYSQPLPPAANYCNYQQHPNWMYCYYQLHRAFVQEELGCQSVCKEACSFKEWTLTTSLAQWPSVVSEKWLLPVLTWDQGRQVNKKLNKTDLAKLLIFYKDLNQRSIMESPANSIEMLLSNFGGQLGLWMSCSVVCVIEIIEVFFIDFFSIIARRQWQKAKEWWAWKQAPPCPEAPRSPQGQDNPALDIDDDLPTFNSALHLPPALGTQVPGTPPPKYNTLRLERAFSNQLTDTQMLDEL
Source text: (§1) In this experiment HEK293 cells which were transfected with sequences encoding the human alpha, beta and gamma subunits were used to screen for the effect of amiloride on NaCl induced changes in membrane potential. […] These HEK293 cells were transiently transfected with plasmids containing the alpha, beta and gamma ENaC encoding nucleic acid sequences and then loaded with a membrane potential dye (FMP; Molecular Devices) in the absence of sodium (NaCl was replaced with NMDG) at room temperature for one hour. Cells were then stimulated with 70 mM NaCl with (red trace) or without (white trace) 6.25 micromolar amiloride. Changes in membrane potential (fluorescent signal) in HEK293 cells were monitored on a FLIPR system (Molecular Devices). […] HEK293 cells were transiently transfected with the gamma, beta, and delta subunit containing plasmids and were loaded with a membrane potential dye (FMP; Molecular Devices) in the absence of sodium (NaCl was replaced with NMDG) at room temperature for one hour. Cells were then stimulated with 70 mM NaCl with (red trace) or without (white trace) 50 micromolar amiloride. Changes in membrane potential (fluorescent signal) were monitored on a FLIPR system (Molecular Devices). […] Therein cells were prepared and treated as in Panels A and B. Increasing concentrations of amiloride were used to assess potency at inhibiting the different forms of ENaC.
This example relates to the fluorescent experiments contained in FIG. 2, Panels A, B and C. In the experiment in Panel A it can be seen that the enhancer S559 increases the NaCl-induced change in membrane potential in HEK293 cells expressing the alphaENaC channel. […] Changes in membrane potential (fluorescent signal) were monitored on a FLIPR system (Molecular Devices). […] Changes in membrane potential (Fluorescent signal) were monitored on a FLIPR system (Molecular Devices).

[4] = target: T2, deltaENaC channel (gamma, beta, and delta subunit) (Homo sapiens, UniProt P51168+P51170+P51172); experiment: FLIPR membrane potential dye assay, dye loaded in absence of sodium (Protocol 1), deltaENaC-transfected HEK293 cells; type: cell-based; conditions: 50 micromolar amiloride; 70 mM NaCl stimulus; dye loaded without sodium (NMDG)
T2 construct: expressed in transfected cells; host or cells: HEK293, transient transfection
T2 sequence (P51172 1-638 isoform P51172-1): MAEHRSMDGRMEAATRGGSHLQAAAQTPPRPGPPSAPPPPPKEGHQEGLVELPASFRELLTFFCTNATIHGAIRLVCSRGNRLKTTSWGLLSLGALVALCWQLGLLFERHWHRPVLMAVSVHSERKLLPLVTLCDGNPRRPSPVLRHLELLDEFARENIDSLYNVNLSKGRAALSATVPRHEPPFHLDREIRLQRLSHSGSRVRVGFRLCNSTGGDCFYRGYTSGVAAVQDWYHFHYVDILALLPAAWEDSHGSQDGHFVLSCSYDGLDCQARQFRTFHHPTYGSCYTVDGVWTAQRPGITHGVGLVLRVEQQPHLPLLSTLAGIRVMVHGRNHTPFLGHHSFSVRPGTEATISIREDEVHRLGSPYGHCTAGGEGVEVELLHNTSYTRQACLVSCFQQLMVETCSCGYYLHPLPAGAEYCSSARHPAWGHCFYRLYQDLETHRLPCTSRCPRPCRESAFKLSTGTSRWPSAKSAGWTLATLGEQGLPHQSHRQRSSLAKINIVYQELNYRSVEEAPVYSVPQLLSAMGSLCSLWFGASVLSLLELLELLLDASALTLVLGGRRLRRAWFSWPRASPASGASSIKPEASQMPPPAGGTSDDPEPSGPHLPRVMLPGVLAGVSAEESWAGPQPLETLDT
T2 sequence (P51168 1-640): T1 sequence (P51168 1-640)
T2 sequence (P51170 1-649): T1 sequence (P51170 1-649)
Source text: as §1

HEK293 cells = experiment: FLIPR membrane potential control in mock-transfected or un-transfected HEK293 cells (Protocol 2); type: cell-based; conditions: HEK293 transfected with mock plasmid (pUC19)
Method: In the experiment HEK293 cells again transfected transiently with plasmids containing the alpha, beta, and gamma ENaC subunit nucleic acid sequences and were treated as described in Example 2., Panel B (Protocol 2). Changes in membrane potential (fluorescent signal) were monitored on a FLIPR system (Molecular Devices). […] HEK293 cells were transfected with a mock plasmid (pUC19) and treated as described above. Changes in membrane potential (fluorescent signal) were monitored on a FLIPR system (Molecular Devices).
HEK293 cells transiently transfected with plasmids containing nucleic acid sequences encoding the human delta, beta and gamma ENaC subunits and were treated as described in FIG. 2; Panel B (Protocol 2).

[5] = target: T3, alphaENaC channel (alpha, beta and gamma ENaC subunits) (Homo sapiens, UniProt P37088+P51168+P51170); experiment: FLIPR membrane potential dye assay, dye loaded in 140 mM NaCl (Protocol 2), alphaENaC-transfected HEK293 cells; type: cell-based; conditions: 3 micromolar amiloride
T3 construct: expressed in transfected cells; host or cells: HEK293, transient transfection
T3 sequence (P37088 1-669): T1 sequence (P37088 1-669)
T3 sequence (P51168 1-640): T1 sequence (P51168 1-640)
T3 sequence (P51170 1-649): T1 sequence (P51170 1-649)
Source text: This example relates to the fluorescent experiments contained in FIG. 2, Panels A, B and C. In the experiment in Panel A it can be seen that the enhancer S559 increases the NaCl-induced change in membrane potential in HEK293 cells expressing the alphaENaC channel. HEK293 cells were transiently transfected with plasmids containing sequences encoding the human alpha, beta, and gamma ENaC subunits and were loaded with a membrane potential dye (FMP; Molecular Devices) in the absence of sodium (NaCl was replaced with NMDG) at room temperature for one hour. Cells were then stimulated with 17.5 mM NaCl with (red trace) and without (white trace) 15 micromolar S559. Changes in membrane potential (fluorescent signal) were monitored on a FLIPR system (Molecular Devices). […] Changes in membrane potential (Fluorescent signal) were monitored on a FLIPR system (Molecular Devices).
In the experiment HEK293 cells again transfected transiently with plasmids containing the alpha, beta, and gamma ENaC subunit nucleic acid sequences and were treated as described in Example 2., Panel B (Protocol 2). Changes in membrane potential (fluorescent signal) were monitored on a FLIPR system (Molecular Devices). […] Changes in membrane potential (fluorescent signal) were monitored on a FLIPR system (Molecular Devices). […]

SMILES | effect on perceived human salt intensity [1] | reduction of intensity of sodium chloride taste [2] | inhibition of NaCl induced changes in membrane potential ([3]; 6.25 micromolar amiloride, 70 mM NaCl stimulus, dye loaded without sodium (NMDG)) | apparent affinity on α-ENaC transfected cells relative to δ-ENaC transfected cells ([3]; dye loaded in absence of sodium, sodium add back) | potency at inhibiting alphaENaC versus deltaENaC ([3]; increasing concentrations of amiloride, cells treated as in Panels A and B) | inhibition of NaCl induced change in membrane potential [4] | effect on membrane potential in cells that do not express alphaENaC (HEK293 cells) | block of S559 enhancer effects [5]
N=C(N)NC(=O)c1nc(Cl)c(N)nc1N [amiloride] | did not elicit a significant effect | 15-20% | totally inhibited | at least 10 fold | more potent at inhibiting alphaENaC than deltaENaC | totally inhibited | do not exhibit any effect | almost totally abolishes
NC(=Nc1ccccc1)NC(=O)c1nc(Cl)c(N)nc1N [phenamil] | did not elicit a significant effect |  |  |  |  |  |  | 
